Measurements as given in patent publication US10918727B2, “Peptide with ability to penetrate cell membrane” (ICURE BNP CO., LTD., priority 2016, dated 2021).

System: male ICR mice
Experiment: Repeated-dose toxicity of nasal insulin formulations (10 days)
Format: in vivo, mouse
Conditions: intranasal once a day for 10 days (insulin 2 IU/kg)
Experimental: The collected blood was centrifuged to isolate serum, and the isolated serum was analyzed using an automatic serum analyzer. […] From the organ tissue, paraffin sections were prepared, and then stained with H&E (Hematoxylin and Eosin). Histopathological examination of the stained tissues was performed using an optical microscope.

C[C@H](CCC(=O)NCCS(=O)(=O)[O-])[C@H]1CC[C@H]2[C@@H]3CC[C@@H]4C[C@H](O)CC[C@]4(C)[C@H]3C[C@H](O)[C@]12C.[Na+] [sodium taurodeoxycholate]
histological evaluation of the nasal mucosal tissue: destroyed
